These results are taken from US7125878B2, “Substituted pyrroline kinase inhibitors” (Janssen Pharmaceutica, priority 2002, dated 2006).

Several values for one entry are separate records, joined by “and”; a condition that tells them apart may be missing. Identical values can stand only once.

For test [1], the target named is T1, recombinant rabbit GSK-3β protein (Oryctolagus cuniculus, UniProt G1T8E2).
T1 construct: purchased New England Biolabs
The test is described as follows: Glycogen Synthase Kinase-3 Assay (33P phosphorylation of PPI-2). Particulars: for IC50: two numbers = data obtained on different days. Type of test: biochemical. On the procedure: Glycogen Synthase Kinase-3 Assay
Compounds were tested for the ability to inhibit recombinant rabbit GSK-3β protein using the following protocol. The test compound was added to a reaction mixture containing Protein Phosphatase Inhibitor-2 (PPI-2) (Calbiochem) (45 ng), rabbit GSK-3β protein (New England Biolabs) (0.75 units) and ^33P-ATP (1 μCi) in 50 mM Tris-HCl (pH 8.0), 10 mM MgCl2, 0.1% BSA, 1 mM DTT and 100 μM Sodium Vanadate. The mixture was reacted for 90 minutes at 30° C. to allow phosphorylation of the PPI-2 protein and then the protein in the reaction was precipitated using 10% TCA. The precipitated protein was collected on filter plates (MultiScreen-DV/Millipore), which were subsequently washed. Finally, the radioactivity was quantified using a TopCount Scintillation Counter (Packard). […] Staurosporine or Valproate, known inhibitors of GSK-3β, were used as a positive control for screening.

The target of the next test is PKC-βII (Homo sapiens, UniProt P05771). The test is described as follows: Protein Kinase C Histone-Based Assay, isozyme β-II. Type of test: biochemical. Particulars: for IC50: histone III substrate.
Chain of PKC-βII (P05771 1-673 isoform P05771-2): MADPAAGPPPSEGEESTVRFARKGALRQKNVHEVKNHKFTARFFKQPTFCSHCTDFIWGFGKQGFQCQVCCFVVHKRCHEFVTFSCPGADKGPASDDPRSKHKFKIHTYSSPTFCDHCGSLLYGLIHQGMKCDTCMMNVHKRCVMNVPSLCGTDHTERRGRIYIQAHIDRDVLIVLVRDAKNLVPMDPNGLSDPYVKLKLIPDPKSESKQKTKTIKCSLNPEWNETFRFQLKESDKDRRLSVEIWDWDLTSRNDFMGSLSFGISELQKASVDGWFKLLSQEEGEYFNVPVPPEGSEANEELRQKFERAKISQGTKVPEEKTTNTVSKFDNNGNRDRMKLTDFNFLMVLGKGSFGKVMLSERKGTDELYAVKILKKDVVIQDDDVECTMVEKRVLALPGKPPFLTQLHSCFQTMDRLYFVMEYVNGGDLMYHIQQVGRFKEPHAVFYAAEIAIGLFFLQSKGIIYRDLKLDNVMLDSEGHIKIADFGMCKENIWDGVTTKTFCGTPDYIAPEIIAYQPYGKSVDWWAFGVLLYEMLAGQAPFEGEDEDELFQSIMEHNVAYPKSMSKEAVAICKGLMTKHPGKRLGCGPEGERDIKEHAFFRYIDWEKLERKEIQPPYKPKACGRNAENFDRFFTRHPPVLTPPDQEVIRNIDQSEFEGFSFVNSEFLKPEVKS
A further test deals with PKC-α (Homo sapiens, UniProt P17252). The test is described as follows: Protein Kinase C Histone-Based Assay, isozyme α. As to conditions: for inhibition at 10 µM: read-out: PKC-α % inhibition.
A further test deals with PKC-γ (Homo sapiens, UniProt P05129). Briefly: Protein Kinase C Histone-Based Assay, isozyme γ. As to conditions: for inhibition at 10 µM: read-out: PKC-γ % inhibition.

T1 sequence (G1T8E2 1-432): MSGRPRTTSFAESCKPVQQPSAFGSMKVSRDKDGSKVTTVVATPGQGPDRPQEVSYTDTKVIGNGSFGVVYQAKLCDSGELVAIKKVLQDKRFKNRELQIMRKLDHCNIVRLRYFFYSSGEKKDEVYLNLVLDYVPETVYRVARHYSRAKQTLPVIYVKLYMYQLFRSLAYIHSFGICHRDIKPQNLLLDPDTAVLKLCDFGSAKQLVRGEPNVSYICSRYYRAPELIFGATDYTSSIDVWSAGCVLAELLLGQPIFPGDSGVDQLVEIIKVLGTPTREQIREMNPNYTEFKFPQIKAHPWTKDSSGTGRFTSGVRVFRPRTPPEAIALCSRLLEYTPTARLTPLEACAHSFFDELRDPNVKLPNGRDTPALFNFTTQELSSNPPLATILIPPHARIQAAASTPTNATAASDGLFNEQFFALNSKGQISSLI
Description for PKC-α: (§1) Compounds were evaluated for PKC isozyme selectivity using histone III as the substrate. […] 100 μg/mL phosphatidylserine, 20 μg/mL diacylglycerol, 30 μM ATP, 1 μCi [^33P]ATP and 200 μg/mL histone III. The reaction was incubated for 10 min at 30° C. Reactions were terminated by TCA precipitation and spotting on Whatman P81 filters. Filters were washed in 75 mM phosphoric acid and the radioactivity quantified by liquid scintillation counting.
Description for PKC-βII: as §1
Description for PKC-γ: as §1

With `O=C1NC(=O)C(c2nn(CCCO)c3ccccc23)=C1c1cn(-c2ccc3ccccc3c2)c2ncccc12` [Cpd 21, 3-[1-(3-hydroxypropyl)-1H-indazol-3-yl]-4-[1-(2-naphthalenyl)-1H-pyrrolo[2,3-b]pyridin-3-yl]-1H-pyrrole-2,5-dione], the inhibition at 1 µM in test [1] (@1 μM, two numbers = different days) turned out to be 44%. For the same molecule, the IC50 against PKC-βII was determined as 36 nM; at PKC-α, 1440 nM; against PKC-γ, 859 nM.
Take `COC(=O)NCCCn1cc(C2=C(c3ccccc3OC)C(=O)NC2=O)c2cccnc21` [Cpd 35, [3-[3-[2,5-dihydro-4-(2-methoxyphenyl)-2,5-dioxo-1H-pyrrol-3-yl]-1H-pyrrolo[2,3-b]pyridin-1-yl]propyl]-carbamic acid methyl ester]: the half-maximal inhibitory concentration (IC50) in test [1] was 8 nM and 11 nM. In addition, the inhibition at 1 µM at PKC-βII worked out at 35%. Also, the inhibition at 10 µM at PKC-α was found to be 31%; on PKC-γ, 35%.
As to `COC(=O)NCCCn1cc(C2=C(c3ccccc3C(F)(F)F)C(=O)NC2=O)c2cccnc21` [Cpd 37, [3-[3-[2,5-dihydro-4-(2-trifluoromethylphenyl)-2,5-dioxo-1H-pyrrol-3-yl]-1H-pyrrolo[2,3-b]pyridin-1-yl]propyl]-carbamic acid methyl ester], the IC50 was 14 nM and 19 nM in test [1]; 342 nM against PKC-βII; 5270 nM against PKC-α; 4750 nM at PKC-γ.
As for `COc1ccccc1C1=C(c2cn(CCCNC=O)c3ncccc23)C(=O)NC1=O` [Cpd 78, N-[3-[3-[2,5-dihydro-4-(2-methoxyphenyl)-2,5-dioxo-1H-pyrrol-3-yl]-1H-pyrrolo[2,3-b]pyridin-1-yl]propyl]-formamide], the concentration for half-maximal inhibition (IC50) in test [1] was 7 nM and 9 nM. Further, the inhibition at 1 µM against PKC-βII is 21%. Moreover, the inhibition at 10 µM on PKC-α came to 33%; on PKC-γ it was 48%.
